Structures can show the parent of a compound that is named as a salt.
Experiments:
[1] = target: isolated recombinant JAK1 kinase domain (Homo sapiens (Human), UniProt P23458); assay: JAK1 enzyme assay (Caliper LabChip, peptide phosphorylation); type: biochemical; details: isolated recombinant JAK1 kinase domain, 25 μM ATP
[2] = target: isolated recombinant JAK2 kinase domain (Homo sapiens (Human), UniProt O60674); assay: JAK2 enzyme assay (Caliper LabChip, peptide phosphorylation); type: biochemical; details: 25 μM ATP
Chain of isolated recombinant JAK2 kinase domain (O60674 849-1124): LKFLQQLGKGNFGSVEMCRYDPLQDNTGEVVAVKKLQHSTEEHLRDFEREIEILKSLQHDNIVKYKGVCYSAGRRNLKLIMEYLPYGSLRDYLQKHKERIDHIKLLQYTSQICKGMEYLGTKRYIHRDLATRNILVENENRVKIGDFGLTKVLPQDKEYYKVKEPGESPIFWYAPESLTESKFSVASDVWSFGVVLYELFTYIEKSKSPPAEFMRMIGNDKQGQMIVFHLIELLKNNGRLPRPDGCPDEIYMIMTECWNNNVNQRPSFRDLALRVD

[3] = tested on: JAK1-dependent STAT6 phosphorylation downstream of IL-13 stimulation in BEAS-2B human bronchial epithelial cells; assay: JAK1 pathway assay in BEAS-2B cells (IL-13-pSTAT6, MSD); type: cell-based; details: read-out: IL13-pSTAT6 EC50 (uM)_BEAS-2B
In short: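 BEAS-2B: complete growth medium, compound 1 hr at 37° C. TF-1: GM-CSF-starved overnight, serum-free OptiMEM, compound 30 min.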

Chain of isolated recombinant JAK1 kinase domain (P23458 875-1153): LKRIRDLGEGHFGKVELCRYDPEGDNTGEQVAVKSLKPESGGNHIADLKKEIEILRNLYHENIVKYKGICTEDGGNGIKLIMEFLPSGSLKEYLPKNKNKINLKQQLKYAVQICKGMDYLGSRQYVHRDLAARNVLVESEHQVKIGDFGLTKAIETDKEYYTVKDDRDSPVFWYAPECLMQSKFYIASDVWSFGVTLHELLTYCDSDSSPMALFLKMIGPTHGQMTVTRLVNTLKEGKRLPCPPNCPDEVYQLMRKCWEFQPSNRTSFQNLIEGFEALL

| Structure (SMILES) | Ki [1] | Ki [2] | EC50 [3] |
| --- | --- | --- | --- |
| CC(C)(C)OC(=O)N1CC[C@H](n2cc(NC(=O)c3cnn4cccnc34)c(-c3cc(Cl)ccc3OC(F)F)n2)[C@@H](O)C1 (single isomer, unassigned) [Example 355] | 3.32 nM | 3.72 nM | 0.0678 µM |
| CN(C)CCOC(=O)C1(C)CCN(C(=O)Cn2cc(NC(=O)c3cnn4cccnc34)c(-c3cc(Cl)ccc3OC(F)F)n2)CC1 [Example 340, 2-(dimethylamino)ethyl 1-(2-[3-[5-chloro-2-(difluoromethoxy)phenyl]-4-[pyrazolo[1,5-a]pyrimidine-3-amido]-1H-pyrazol-1-yl]acetyl)-4-methylpiperidine-4-carboxylate] | 0.44 nM | 1.79 nM | 0.009 µM |
| CC1(N2CCOCC2)CCN(C(=O)Cn2cc(NC(=O)c3cnn4cccnc34)c(-c3cc(Cl)ccc3OC(F)F)n2)CC1 [Example 410, N-(3-(5-chloro-2-(difluoromethoxy)phenyl)-1-(2-(4-methyl-4-morpholinopiperidin-1-yl)-2-oxoethyl)-1H-pyrazol-4-yl)pyrazolo[1,5-a]pyrimidine-3-carboxamide] | 0.6 nM | 1.25 nM | 0.0183 µM |
| O=C1CC(N2CCN(C(=O)Cn3cc(NC(=O)c4cnn5cccnc45)c(-c4cc(Cl)ccc4OC(F)F)n3)CC2)CO1 (stereo not drawn) [Example 392, N-[3-[5-chloro-2-(difluoromethoxy)phenyl]-1-[2-oxo-2-[4-(5-oxooxolan-3-yl)piperazin-1-yl]ethyl]-1H-pyrazol-4-yl]pyrazolo[1,5-a]pyrimidine-3-carboxamide] | 0.4 nM | 0.77 nM | 0.0261 µM |
| CN(CCn1cc(NC(=O)c2cnn3cccnc23)c(-c2cc(Cl)ccc2OC(F)F)n1)CC1CCC(=O)O1 (stereo not drawn) [Example 390, N-[3-[5-chloro-2-(difluoromethoxy)phenyl]-1-(2-[methyl[(5-oxooxolan-2-yl)methyl]amino]ethyl)-1H-pyrazol-4-yl]pyrazolo[1,5-a]pyrimidine-3-carboxamide] | 1.28 nM | 0.84 nM | 0.0424 µM |
| CSCCNCCn1cc(NC(=O)c2cnn3cccnc23)c(-c2cc(Cl)ccc2OC(F)F)n1 [Example 312, N-[3-[5-chloro-2-(difluoromethoxy)phenyl]-1-(2-[[2-(methylsulfanyl)ethyl]amino]ethyl)-1H-pyrazol-4-yl]pyrazolo[1,5-a]pyrimidine-3-carboxamide] | 0.4 nM | 0.32 nM | 0.0719 µM |
| CC(C)(C)OC(=O)N1CC[C@H](O)[C@@H](n2cc(NC(=O)c3cnn4cccnc34)c(-c3cc(Cl)ccc3OC(F)F)n2)C1 (single isomer, unassigned) [Example 357] | 1.22 nM | 1.06 nM | 0.0216 µM |
| CN(CC1(CC#N)CC1)C1CCN(C(=O)Cn2cc(NC(=O)c3cnn4cccnc34)c(-c3cc(Cl)ccc3OC(F)F)n2)CC1 [Example 435, N-(3-(5-chloro-2-(difluoromethoxy)phenyl)-1-(2-(4-(((1-(cyanomethyl)cyclopropyl)methyl)(methyl)amino)piperidin-1-yl)-2-oxoethyl)-1H-pyrazol-4-yl)pyrazolo[1,5-a]pyrimidine-3-carboxamide] | 0.34 nM | 0.98 nM | 0.0074 µM |
| N#Cc1ccc(CN2CCN(C(=O)Cn3cc(NC(=O)c4cnn5cccnc45)c(-c4cc(Cl)ccc4OC(F)F)n3)CC2)cc1 [Example 238, N-[3-[5-chloro-2-(difluoromethoxy)phenyl]-1-[2-[4-[(4-cyanophenyl)methyl]piperazin-1-yl]-2-oxo-ethyl]pyrazol-4-yl]pyrazolo[1,5-a]pyrimidine-3-carboxamide] | 0.45 nM | 0.55 nM | 0.0218 µM |
| CN1CCN(C(=O)Cn2cc(NC(=O)c3cnn4cccnc34)c(-c3cc(Cl)ccc3OC(F)F)n2)C(C)(C)C1 [Example 377, N-[3-[5-chloro-2-(difluoromethoxy)phenyl]-1-[2-oxo-2-(2,2,4-trimethylpiperazin-1-yl)ethyl]-1H-pyrazol-4-yl]pyrazolo[1,5-a]pyrimidine-3-carboxamide] | 0.56 nM | 1.3 nM | 0.0528 µM |
| CN1CCC(COC(=O)C2CCN(C(=O)Cn3cc(NC(=O)c4cnn5cccnc45)c(-c4cc(Cl)ccc4OC(F)F)n3)CC2)CC1 [Example 388, (1-methylpiperidin-4-yl)methyl 1-(2-[3-[5-chloro-2-(difluoromethoxy)phenyl]-4-[pyrazolo[1,5-a]pyrimidine-3-amido]-1H-pyrazol-1-yl]acetyl)piperidine-4-carboxylate] | 0.51 nM | 2.42 nM | 0.0241 µM |
| O=C(Nc1cn(CC(=O)N2CCN(CCN3CCOCC3)CC2)nc1-c1cc(Cl)ccc1OC(F)F)c1cnn2cccnc12 [Example 321, N-[3-[5-chloro-2-(difluoromethoxy)phenyl]-1-(2-[4-[2-(morpholin-4-yl)ethyl]piperazin-1-yl]-2-oxoethyl)-1H-pyrazol-4-yl]pyrazolo[1,5-a]pyrimidine-3-carboxamide] | 0.4 nM | 0.9 nM | 0.0133 µM |
| C[C@@H](Cn1cc(NC(=O)c2cnn3cccnc23)c(-c2cc(Cl)ccc2OC(F)F)n1)N(C)C [Example 370, N-[3-[5-chloro-2-(difluoromethoxy)phenyl]-1-[(2S)-2-(dimethylamino)propyl]-1H-pyrazol-4-yl]pyrazolo[1,5-a]pyrimidine-3-carboxamide] | 1.37 nM | 1.37 nM | 0.0402 µM |
| CN(C)C(=O)CN1CCC(CN2CCN(C(=O)Cn3cc(NC(=O)c4cnn5cccnc45)c(-c4cc(Cl)ccc4OC(F)F)n3)CC2)CC1 [Example 428, N-(3-(5-chloro-2-(difluoromethoxy)phenyl)-1-(2-(4-((1-(2-(dimethylamino)-2-oxoethyl)piperidin-4-yl)methyl)piperazin-1-yl)-2-oxoethyl)-1H-pyrazol-4-yl)pyrazolo[1,5-a]pyrimidine-3-carboxamide] | 0.79 nM | 2.51 nM | 0.0453 µM |
| O=C(O)CN(CCn1cc(NC(=O)c2cnn3cccnc23)c(-c2cc(Cl)ccc2OC(F)F)n1)Cc1cccnc1 [Example 363, 2-[(2-[3-[5-chloro-2-(difluoromethoxy)phenyl]-4-[pyrazolo[1,5-a]pyrimidine-3-amido]-1H-pyrazol-1-yl]ethyl)(pyridin-3-ylmethyl)amino]acetic acid] | 4.15 nM | 1.21 nM | 3.78 µM |
| O=C(Nc1cn(CC(=O)N2CCNCC2)nc1-c1cc(Cl)ccc1OC(F)F)c1cnn2cccnc12 [Example 324, N-[3-[5-chloro-2-(difluoromethoxy)phenyl]-1-[2-oxo-2-(piperazin-1-yl)ethyl]-1H-pyrazol-4-yl]pyrazolo[1,5-a]pyrimidine-3-carboxamide] | 0.95 nM | 1.61 nM | 0.0566 µM |
| O=C(Nc1cn(CCNCc2ccc(O)cc2)nc1-c1cc(Cl)ccc1OC(F)F)c1cnn2cccnc12 [Example 328, N-[3-[5-chloro-2-(difluoromethoxy)phenyl]-1-(2-[[(4-hydroxyphenyl)methyl]amino]ethyl)-1H-pyrazol-4-yl]pyrazolo[1,5-a]pyrimidine-3-carboxamide] | 0.21 nM | 0.23 nM | 0.0102 µM |
| COC(=O)CNCCn1cc(NC(=O)c2cnn3cccnc23)c(-c2cc(Cl)ccc2OC(F)F)n1 [Example 386, methyl 2-[(2-[3-[5-chloro-2-(difluoromethoxy)phenyl]-4-[pyrazolo[1,5-a]pyrimidine-3-amido]-1H-pyrazol-1-yl]ethyl)amino]acetate] | 1.06 nM | 0.56 nM | 0.0297 µM |
| O=C(Nc1cn(CCNCc2cccc(O)c2)nc1-c1cc(Cl)ccc1OC(F)F)c1cnn2cccnc12 [Example 327, N-[3-[5-chloro-2-(difluoromethoxy)phenyl]-1-(2-[[(3-hydroxyphenyl)methyl]amino]ethyl)-1H-pyrazol-4-yl]pyrazolo[1,5-a]pyrimidine-3-carboxamide] | 0.25 nM | 0.2 nM | 0.0077 µM |
| CC1CN(C(=O)Cn2cc(NC(=O)c3cnn4cccnc34)c(-c3cc(Cl)ccc3OC(F)F)n2)CCN1C (stereo not drawn) [Example 376, N-[3-[5-chloro-2-(difluoromethoxy)phenyl]-1-[2-(3,4-dimethylpiperazin-1-yl)-2-oxoethyl]-1H-pyrazol-4-yl]pyrazolo[1,5-a]pyrimidine-3-carboxamide] | 0.66 nM | 1.03 nM | 0.0325 µM |
| O=C(Nc1cn(CCN[C@@H]2CCOC2)nc1-c1cc(Cl)ccc1OC(F)F)c1cnn2cccnc12 [Example 402, N-(3-(5-chloro-2-(difluoromethoxy)phenyl)-1-(2-((R)-tetrahydrofuran-3-ylamino)ethyl)-1H-pyrazol-4-yl)pyrazolo[1,5-a]pyrimidine-3-carboxamide] | 0.83 nM | 0.4 nM | 0.0187 µM |
| O=C(Nc1cn(Cc2cn(C3CCNCC3)nn2)nc1-c1cc(Cl)ccc1OC(F)F)c1cnn2cccnc12 [Example 452, N-(3-(5-chloro-2-(difluoromethoxy)phenyl)-1-((1-(piperidin-4-yl)-1H-1,2,3-triazol-4-yl)methyl)-1H-pyrazol-4-yl)pyrazolo[1,5-a]pyrimidine-3-carboxamide] | 0.71 nM | 0.65 nM | 0.0809 µM |
| CCOC(=O)C1(C)CCN(CCN2CCN(C(=O)Cn3cc(NC(=O)c4cnn5cccnc45)c(-c4cc(Cl)ccc4OC(F)F)n3)CC2)CC1 [Example 337, ethyl 1-[2-[4-(2-[3-[5-chloro-2-(difluoromethoxy)phenyl]-4-[pyrazolo[1,5-a]pyrimidine-3-amido]-1H-pyrazol-1-yl]acetyl)piperazin-1-yl]ethyl]-4-methylpiperidine-4-carboxylate formate] | 0.83 nM | 2.52 nM | 0.0232 µM |

— patent US9346815B2, “5-chloro-2-difluoromethoxyphenyl pyrazolopyrimidine compounds, compositions and methods of use thereof” (Genentech, Inc., priority 2014, dated 2016)
